Patent publication EP0541497A1, “Prolineamide derivatives as enhancers of learning processes and memory and pharmaceutical compositions containing same” (Sigma-Tau Industrie Farmaceutiche Riunite S.p.A., priority 1991, dated 1993)

What was measured:
[1] = test system: ECS-induced amnesia; experiment: Passive avoidance test, amnesia induced by electroconvulsive shock (ECS); format: in vivo, Male CDI mice; settings: percentage of amnesia reversal, given 30 minutes before training, retention 24 hours later
Experimental: In order to assess the antiamnesic activity the passive avoidance test in mince was used.
Male CDI mice weighing 25-26 g (charles River, Germany) fed on a normal diet, were used.
The compounds were administered i.p.; doses equimolar to 9.0 and 0.9 mg piracetam kg ⁻¹ were used.
The water-soluble compounds were dissolved in saline; the insoluble ones were dissolved in dimethylsulfoxide and then diluted in 2% Tween 80, ratio 1:4.
The apparatus for passive avoidance conditioning was a black plastic chamber (42 x 42 cm, height 40 cm), provided with a floor constructed of metal that could be electrified. From the front wall extended a white runway, 30 cm long and 10 cm wide provided with side walls 12 cm high, which led into the box through a guillotine door.
The animals, 30 minutes following treatment, were placed on the runways. After one minute of adaptation, the door was raised and the time employed by the animal to enter the darkened with all four feet, was recorded.
Upon entry, the guillotine door was lowered and 3 seconds thereafter the rods were electrified, 0.24 mA for 2 seconds. The mouse was then removed from the chamber and immediately administered and electroshock delivered through spring clips attached to the ears (square wave, intensity 20 mA, amplitude 0.6 msec, duration 0.5 s, frequency 50 Hz). Immediately thereafter the animal was placed in the housing cage. Retention was assessed 24 hours later by placing the animal on the runways and again evaluating the latency in entering the chamber, using an end-point of 300 s (crf. Brammer, loc. cit.).
In each experiment, two groups of animals in addition to the treated ones were used, that were defined as follows: • (1) ceiling control animals (treated with placebo and not subjected to ECS amnesia treatment) to ensure that these animals not treated with the amnesia agent remembered the task; • (2) base-line control animals (treated with placebo and subjected to ECS amnesia treatment) to ensure that ECS produced amnesia in the animals not treated with the compounds of the present invention.
The sum ΣAij encompasses all the possible pairs obtained by combining each term Xi with each term Xj.

[2] = test system: male CDI Mice; experiment: Behavioural profile (Irwin test); format: in vivo; settings: oral, the other doses (equimolar to 23, 5.4 and 1.4 mg piracetam/10mL/kg), monitored for 6 hours
Experimental: (§1) The behavioural profile was assessed in male CDI Mice (Charles River, Italy) weighing 22-24 g, using the Irwin test (IRWIN S., Drug screening and evaluation procedures; 136, 123-128, 1962). The animals had been caged under normal conditions and kept fasting for the last 18 hours.
(§2) Following administration of the compounds, the behaviour of the animals was monitored for 6 hours. The compounds were suspended in 10% arabic gum and orally administered at doses equimolar to 90, 23, 5.4 and 1.4 mg piracetam/10mL/kg of body weight.
(§3) The animals of the control groups were administered 10% arabic gum (10mL/kg, orally).

[3] = Behavioural profile (Irwin test); format: in vivo, male CDI Mice; settings: mouse, in vivo; oral, 90 mg/kg (equimolar to piracetam), monitored for 6 hours; read-out: death rate
Experimental: as §1, §2, §3

[4] = relative to oxiracetan; cited from earlier work
[5] = 0.9 mg/kg (i.p., dose equimolar to 0.9 mg piracetam kg-1)
[6] = 9mg/kg (i.p., dose equimolar to 9.0 mg piracetam kg-1)

Q: With `CC(C)N(CCNC(=O)[C@@H]1CCCN1C(=O)OCc1ccccc1)C(C)C` [ST 691, (S)-1-[N-(BENZYLOXYCARBONYL)-PROLYL]-2,2(DIISOPROPYL)-ETHYLENDIAMINE] as the compound, how does the “%AR” value [1, 5] read?
A: 52%

Q: And the “%AR” value [1, 6]?
A: 0%

Q: What about the toxicity [2] of the same compound?
A: non toxic

Q: What about the mortality at 6 h [3] of the same compound?
A: 100%

Q: With `NC(=O)CN1CCCC1=O` [Piracetam, reference compound] as the compound, how does the “%AR” value [1, 5] read?
A: 0%

Q: And the “%AR” value [1, 6]?
A: 0%

Q: For `O=C(NCCO)[C@@H]1CCCN1C(=O)OCc1ccccc1` [ST 704, (S)-N-[N-(BENZYLOXYCARBONYL)-PROLYL]-ETHANOLAMINE], which “%AR” value [1, 5] is on record?
A: 0%

Q: And the “%AR” value [1, 6]?
A: 46%

Q: With `CC(C)N(CCNC(=O)[C@@H]1CCCN1C=O)C(C)C` [ST 849, (S)-1-[N-(FORMYL)-PROLYL]-2.2(DIISOPROPYL)-ETHYLENDIAMINE] as the compound, how does the “%AR” value [1, 5] read?
A: 3%

Q: What about the “%AR” value [1, 6] of the same compound?
A: 59%

Q: With `O=C1CC[C@@H](C(=O)O)N1` [L-pyroglutamic acid] as the compound, how does the “doses for nootropic activity, times as high as those of oxiracetan” value [4] read?
A: 5-10 times

Q: Which “%AR” value [1, 5] does the source give for `O=C([C@@H]1CCCN1C(=O)OCc1ccccc1)N1CCN(c2cccc(Cl)c2)CC1` [ST 792, (S)-1-[N-(BENZYLOXYCARBONYL)-PROLYL]-4-(3-CHLOROPHENYL)-PIPERAZINE] here?
A: 26%

Q: And the “%AR” value [1, 6]?
A: 0%
